Values after ≈ are worked out from the molar mass of the structure shown.
Assays:
Assay type in all cases: functional
Staphylococcus aureus [1] = assay: Antibacterial activity against methicillin susceptible staphylococcus aureus ATCC 29213 at 10 % serum
Staphylococcus aureus [2] = assay: Antibacterial activity against methicillin-resistant staphylococcus aureus ATCC 43300 at 10 % serum
Enterococcus faecalis [3] = assay: Antibacterial activity against Enterococcus faecalis ATCC 6569 at 0 % serum
Enterococcus faecalis [4] = assay: Antibacterial activity against Enterococcus faecalis ATCC 6569 at 10 % serum; conditions: ATCC 6569, Serum
Enterococcus faecium [5] = assay: Antibacterial activity against Enterococcus faecium ATCC 49452 at 10 % serum; conditions: ATCC 49452, Serum
Staphylococcus aureus [6] = assay: Antibacterial activity against methicillin susceptible staphylococcus aureus ATCC 29213 at 0 % serum
Staphylococcus aureus [7] = assay: Antibacterial activity against methicillin-resistant staphylococcus aureus ATCC 43300 at 0 % serum
Enterococcus faecium [8] = assay: Antibacterial activity against Enterococcus faecium ATCC 49452 at 0 % serum

Row | Compound | MIC (Staphylococcus aureus [1]) [µg/mL] | MIC (Staphylococcus aureus [2]) [µg/mL] | MIC (Enterococcus faecalis [3]) [µg/mL] | MIC (Enterococcus faecalis [4]) [µg/mL] | MIC (Enterococcus faecium [5]) [µg/mL] | MIC (Staphylococcus aureus [6]) [µg/mL] | MIC (Staphylococcus aureus [7]) [µg/mL] | MIC (Enterococcus faecium [8]) [µg/mL]
1 | CCCCCCCCCC(=O)N[C@@H](Cc1c[nH]c2ccccc12)C(=O)N[C@H](CC(N)=O)C(=O)N[C@@H](CCO)C(=O)N[C@@H]1C(=O)NCC(=O)N[C@@H](CCCNCc2ccc(C(=O)N3CCN(c4ccc(F)cc4)CC3)cc2)C(=O)N[C@@H](CC(=O)O)C(=O)N[C@H](C)C(=O)N[C@@H](CC(=O)O)C(=O)NCC(=O)N[C@H](CO)C(=O)N[C@@H]([C@H](C)CC(=O)O)C(=O)N[C@@H](CC(=O)c2ccccc2N)C(=O)O[C@@H]1C | 1.56 (≈ 0.82 µM) | 0.78 (≈ 0.41 µM) | 3.13 (≈ 1.64 µM) | 6.25 (≈ 3.28 µM) | 6.25 (≈ 3.28 µM) | 0.78 (≈ 0.41 µM) | 0.78 (≈ 0.41 µM) | 6.25 (≈ 3.28 µM)
2 | CCCCCCCCCC(=O)N[C@@H](Cc1c[nH]c2ccccc12)C(=O)N[C@H](CC(N)=O)C(=O)N[C@@H](CCO)C(=O)N[C@@H]1C(=O)NCC(=O)N[C@@H](CCCNCc2ccc(C(=O)N3CCN(Cc4ccccc4)CC3)cc2)C(=O)N[C@@H](CC(=O)O)C(=O)N[C@H](C)C(=O)N[C@@H](CC(=O)O)C(=O)NCC(=O)N[C@H](CO)C(=O)N[C@@H]([C@H](C)CC(=O)O)C(=O)N[C@@H](CC(=O)c2ccccc2N)C(=O)O[C@@H]1C | 0.78 (≈ 0.411 µM) | 0.39 (≈ 0.205 µM) | 6.25 (≈ 3.29 µM) | 6.25 (≈ 3.29 µM) | 6.25 (≈ 3.29 µM) | 0.78 (≈ 0.411 µM) | 0.39 (≈ 0.205 µM) | 3.13 (≈ 1.65 µM)
3 | CCCCCCCCCC(=O)N[C@@H](Cc1c[nH]c2ccccc12)C(=O)N[C@H](CC(N)=O)C(=O)N[C@@H](CCO)C(=O)N[C@@H]1C(=O)NCC(=O)N[C@@H](CCCNCc2ccc3ccccc3n2)C(=O)N[C@@H](CC(=O)O)C(=O)N[C@H](C)C(=O)N[C@@H](CC(=O)O)C(=O)NCC(=O)N[C@H](CO)C(=O)N[C@@H]([C@H](C)CC(=O)O)C(=O)N[C@@H](CC(=O)c2ccccc2N)C(=O)O[C@@H]1C | 1.56 (≈ 0.893 µM) | 0.78 (≈ 0.446 µM) | 6.25 (≈ 3.58 µM) | 12.5 (≈ 7.15 µM) | 25 (≈ 14.3 µM) | 0.78 (≈ 0.446 µM) | 0.78 (≈ 0.446 µM) | 6.25 (≈ 3.58 µM)
4 | CCCCCCCCCC(=O)N[C@@H](Cc1c[nH]c2ccccc12)C(=O)N[C@H](CC(N)=O)C(=O)N[C@@H](CCO)C(=O)N[C@@H]1C(=O)NCC(=O)N[C@@H](CCCNCc2ccccc2F)C(=O)N[C@@H](CC(=O)O)C(=O)N[C@H](C)C(=O)N[C@@H](CC(=O)O)C(=O)NCC(=O)N[C@H](CO)C(=O)N[C@@H]([C@H](C)CC(=O)O)C(=O)N[C@@H](CC(=O)c2ccccc2N)C(=O)O[C@@H]1C | 1.56 (≈ 0.91 µM) | 0.78 (≈ 0.455 µM) | 6.25 (≈ 3.64 µM) | 12.5 (≈ 7.29 µM) | 12.5 (≈ 7.29 µM) | 0.78 (≈ 0.455 µM) | 0.78 (≈ 0.455 µM) | 6.25 (≈ 3.64 µM)
5 | CCCCCCCCCC(=O)N[C@@H](Cc1c[nH]c2ccccc12)C(=O)N[C@H](CC(N)=O)C(=O)N[C@@H](CCO)C(=O)N[C@@H]1C(=O)NCC(=O)N[C@@H](CCCNCc2ccc(OCc3ccccc3)cc2O)C(=O)N[C@@H](CC(=O)O)C(=O)N[C@H](C)C(=O)N[C@@H](CC(=O)O)C(=O)NCC(=O)N[C@H](CO)C(=O)N[C@@H]([C@H](C)CC(=O)O)C(=O)N[C@@H](CC(=O)c2ccccc2N)C(=O)O[C@@H]1C | 25 (≈ 13.7 µM) | 12.5 (≈ 6.87 µM) | 1.56 (≈ 0.858 µM) | 50 (≈ 27.5 µM) | 100 (≈ 55 µM) | 3.13 (≈ 1.72 µM) | 1.56 (≈ 0.858 µM) | 6.25 (≈ 3.44 µM)
6 | CCCCCCCCCC(=O)N[C@@H](Cc1c[nH]c2ccccc12)C(=O)N[C@H](CC(N)=O)C(=O)N[C@@H](CCO)C(=O)N[C@@H]1C(=O)NCC(=O)N[C@@H](CCCNCc2ccc(S(=O)(=O)NCc3ccc(C(F)(F)F)cc3)cc2)C(=O)N[C@@H](CC(=O)O)C(=O)N[C@H](C)C(=O)N[C@@H](CC(=O)O)C(=O)NCC(=O)N[C@H](CO)C(=O)N[C@@H]([C@H](C)CC(=O)O)C(=O)N[C@@H](CC(=O)c2ccccc2N)C(=O)O[C@@H]1C | 3.13 (≈ 1.62 µM) | 0.78 (≈ 0.403 µM) | 0.78 (≈ 0.403 µM) | 6.25 (≈ 3.23 µM) | 6.25 (≈ 3.23 µM) | 0.78 (≈ 0.403 µM) | 0.39 (≈ 0.202 µM) | 0.39 (≈ 0.202 µM)
7 | CCCCCCCCCC(=O)N[C@@H](Cc1c[nH]c2ccccc12)C(=O)N[C@H](CC(N)=O)C(=O)N[C@@H](CCO)C(=O)N[C@@H]1C(=O)NCC(=O)N[C@@H](CCCNCc2ccc(OCc3ccccc3)cc2)C(=O)N[C@@H](CC(=O)O)C(=O)N[C@H](C)C(=O)N[C@@H](CC(=O)O)C(=O)NCC(=O)N[C@H](CO)C(=O)N[C@@H]([C@H](C)CC(=O)O)C(=O)N[C@@H](CC(=O)c2ccccc2N)C(=O)O[C@@H]1C | 6.25 (≈ 3.47 µM) | 6.25 (≈ 3.47 µM) | 1.56 (≈ 0.865 µM) | 12.5 (≈ 6.93 µM) | 25 (≈ 13.9 µM) | 0.78 (≈ 0.433 µM) | 0.78 (≈ 0.433 µM) | 3.13 (≈ 1.74 µM)
8 | CCCCCCCCCC(=O)N[C@@H](Cc1c[nH]c2ccccc12)C(=O)N[C@H](CC(N)=O)C(=O)N[C@@H](CCO)C(=O)N[C@@H]1C(=O)NCC(=O)N[C@@H](CCCNCc2ccc(/C=C/C(=O)N3CCN(c4ccc(F)cc4)CC3)cc2)C(=O)N[C@@H](CC(=O)O)C(=O)N[C@H](C)C(=O)N[C@@H](CC(=O)O)C(=O)NCC(=O)N[C@H](CO)C(=O)N[C@@H]([C@H](C)CC(=O)O)C(=O)N[C@@H](CC(=O)c2ccccc2N)C(=O)O[C@@H]1C | 6.25 (≈ 3.24 µM) | 3.13 (≈ 1.62 µM) | 1.56 (≈ 0.809 µM) | 12.5 (≈ 6.48 µM) | 12.5 (≈ 6.48 µM) | 0.39 (≈ 0.202 µM) | 0.78 (≈ 0.404 µM) | 3.13 (≈ 1.62 µM)
9 | CCCCCCCCCC(=O)N[C@@H](Cc1c[nH]c2ccccc12)C(=O)N[C@H](CC(N)=O)C(=O)N[C@@H](CCO)C(=O)N[C@@H]1C(=O)NCC(=O)N[C@@H](CCCNCc2ccc(C#N)cc2)C(=O)N[C@@H](CC(=O)O)C(=O)N[C@H](C)C(=O)N[C@@H](CC(=O)O)C(=O)NCC(=O)N[C@H](CO)C(=O)N[C@@H]([C@H](C)CC(=O)O)C(=O)N[C@@H](CC(=O)c2ccccc2N)C(=O)O[C@@H]1C | 0.78 (≈ 0.453 µM) | 0.78 (≈ 0.453 µM) | 6.25 (≈ 3.63 µM) | 6.25 (≈ 3.63 µM) | 12.5 (≈ 7.26 µM) | 0.78 (≈ 0.453 µM) | 0.78 (≈ 0.453 µM) | 6.25 (≈ 3.63 µM)
10 | CCCCCCCCCC(=O)N[C@@H](Cc1c[nH]c2ccccc12)C(=O)N[C@H](CC(N)=O)C(=O)N[C@@H](CCO)C(=O)N[C@@H]1C(=O)NCC(=O)N[C@@H](CCCNCc2ccc(S(=O)(=O)N3CCN(c4ccccc4)CC3)cc2)C(=O)N[C@@H](CC(=O)O)C(=O)N[C@H](C)C(=O)N[C@@H](CC(=O)O)C(=O)NCC(=O)N[C@H](CO)C(=O)N[C@@H]([C@H](C)CC(=O)O)C(=O)N[C@@H](CC(=O)c2ccccc2N)C(=O)O[C@@H]1C | 3.13 (≈ 1.63 µM) | 0.78 (≈ 0.406 µM) | 0.78 (≈ 0.406 µM) | 6.25 (≈ 3.25 µM) | 12.5 (≈ 6.51 µM) | 0.39 (≈ 0.203 µM) | 0.78 (≈ 0.406 µM) | 1.56 (≈ 0.812 µM)
11 | CCCCCCCCCC(=O)N[C@@H](Cc1c[nH]c2ccccc12)C(=O)N[C@H](CC(N)=O)C(=O)N[C@@H](CCO)C(=O)N[C@@H]1C(=O)NCC(=O)N[C@@H](CCCNCc2ccc(S(=O)(=O)N3CCN(c4ncccn4)CC3)cc2)C(=O)N[C@@H](CC(=O)O)C(=O)N[C@H](C)C(=O)N[C@@H](CC(=O)O)C(=O)NCC(=O)N[C@H](CO)C(=O)N[C@@H]([C@H](C)CC(=O)O)C(=O)N[C@@H](CC(=O)c2ccccc2N)C(=O)O[C@@H]1C | 1.56 (≈ 0.811 µM) | 1.56 (≈ 0.811 µM) | 3.13 (≈ 1.63 µM) | 6.25 (≈ 3.25 µM) | 12.5 (≈ 6.5 µM) | 0.78 (≈ 0.406 µM) | 0.39 (≈ 0.203 µM) | 3.13 (≈ 1.63 µM)
12 | CCCCCCCCCC(=O)N[C@@H](Cc1c[nH]c2ccccc12)C(=O)N[C@H](CC(N)=O)C(=O)N[C@@H](CCO)C(=O)N[C@@H]1C(=O)NCC(=O)N[C@@H](CCCNCc2ccc(/C=C/C(=O)N3CCN(c4ccc(Cl)c(Cl)c4)CC3)cc2)C(=O)N[C@@H](CC(=O)O)C(=O)N[C@H](C)C(=O)N[C@@H](CC(=O)O)C(=O)NCC(=O)N[C@H](CO)C(=O)N[C@@H]([C@H](C)CC(=O)O)C(=O)N[C@@H](CC(=O)c2ccccc2N)C(=O)O[C@@H]1C | 12.5 (≈ 6.31 µM) | 12.5 (≈ 6.31 µM) | 1.56 (≈ 0.788 µM) | 50 (≈ 25.3 µM) | 50 (≈ 25.3 µM) | 0.78 (≈ 0.394 µM) | 0.78 (≈ 0.394 µM) | 1.56 (≈ 0.788 µM)
13 | CCCCCCCCCC(=O)N[C@@H](Cc1c[nH]c2ccccc12)C(=O)N[C@H](CC(N)=O)C(=O)N[C@@H](CCO)C(=O)N[C@@H]1C(=O)NCC(=O)N[C@@H](CCCNCc2ccc(N3CCN(Cc4ccccc4)CC3)cc2)C(=O)N[C@@H](CC(=O)O)C(=O)N[C@H](C)C(=O)N[C@@H](CC(=O)O)C(=O)NCC(=O)N[C@H](CO)C(=O)N[C@@H]([C@H](C)CC(=O)O)C(=O)N[C@@H](CC(=O)c2ccccc2N)C(=O)O[C@@H]1C | 0.78 (≈ 0.417 µM) | 0.78 (≈ 0.417 µM) | 6.25 (≈ 3.34 µM) | 12.5 (≈ 6.68 µM) | 25 (≈ 13.4 µM) | 0.78 (≈ 0.417 µM) | 0.78 (≈ 0.417 µM) | 12.5 (≈ 6.68 µM)
14 | CCCCCCCCCC(=O)N[C@@H](Cc1c[nH]c2ccccc12)C(=O)N[C@H](CC(N)=O)C(=O)N[C@@H](CCO)C(=O)N[C@@H]1C(=O)NCC(=O)N[C@@H](CCCNCc2ccc(OCc3ccccc3)c(Cl)c2)C(=O)N[C@@H](CC(=O)O)C(=O)N[C@H](C)C(=O)N[C@@H](CC(=O)O)C(=O)NCC(=O)N[C@H](CO)C(=O)N[C@@H]([C@H](C)CC(=O)O)C(=O)N[C@@H](CC(=O)c2ccccc2N)C(=O)O[C@@H]1C | 3.13 (≈ 1.7 µM) | 3.13 (≈ 1.7 µM) | 0.78 (≈ 0.425 µM) | 12.5 (≈ 6.8 µM) | 25 (≈ 13.6 µM) | 0.78 (≈ 0.425 µM) | 0.78 (≈ 0.425 µM) | 0.39 (≈ 0.212 µM)
15 | CCCCCCCCCC(=O)N[C@@H](Cc1c[nH]c2ccccc12)C(=O)N[C@H](CC(N)=O)C(=O)N[C@@H](CCO)C(=O)N[C@@H]1C(=O)NCC(=O)N[C@@H](CCCNCc2cc3ccccc3o2)C(=O)N[C@@H](CC(=O)O)C(=O)N[C@H](C)C(=O)N[C@@H](CC(=O)O)C(=O)NCC(=O)N[C@H](CO)C(=O)N[C@@H]([C@H](C)CC(=O)O)C(=O)N[C@@H](CC(=O)c2ccccc2N)C(=O)O[C@@H]1C | 1.56 (≈ 0.898 µM) | 0.78 (≈ 0.449 µM) | 3.13 (≈ 1.8 µM) | 6.25 (≈ 3.6 µM) | 12.5 (≈ 7.2 µM) | 0.78 (≈ 0.449 µM) | 0.78 (≈ 0.449 µM) | 3.13 (≈ 1.8 µM)

Reference: ChEMBL document CHEMBL1136464, “Array synthesis of novel lipodepsipeptide” (Bioorg Med Chem Lett, 2003)
